Literature values, collected in patent publication US6645974B2, “Androgen receptor modulators and methods for use thereof” (Merck & Co., Inc., priority 2001, dated 2003).
Where a name gives a salt, the structure may show the parent alone.

What was measured:
[1] = postmenopausal osteoporotic women, median of 22 months of treatment
[2] = after 7 years of treatment

Row | Compound | reduction in nonvertebral fractures [1] [%] | reduction in spine fractures [1] [%] | increase in spinal BMD [2] [%]
1 | hPTH(1-34): human parathyroid hormone 1-34 fragment (SVSEIQLMHNLGKHLNSMERVEWLRKKLQDVHNF; Parathyroid hormone; UniProt P01270 32-65, looked up, fragment) | 54 | ≥ 65 | 
2 | NCCCC(O)(P(=O)(O)O)P(=O)(O)O [alendronate, 4-amino-1-hydroxybutylidene-1,1-bisphosphonic acid monosodium salt, trihydrate] |  |  | ≤ 11
